# From ChEMBL document CHEMBL1129226, “Synthesis of conformationally restricted progestational 13-ethylsteroids” (1997)
# Tested on: Oryctolagus cuniculus
# Experiment: In vivo activity using McPhail test after oral dose
# Assay type: functional
row,SMILES,ED2 [mg/kg]
1,C#C[C@]1(O)C=CC2C3CCC4=CC(=O)CCC4C3CCC21CC (stereo partly drawn),0.008
2,C#C[C@]1(O)CCC2C3CCC4=CC(=O)CCC4C3[C@H]3CC(=C)[C@]21C3 (stereo partly drawn),1
3,C#C[C@]1(O)CCC2C3CCC4=CC(=O)CCC4C3[C@H]3C[C@H](C)[C@]21C3 (stereo partly drawn),~0.032
4,C#C[C@]1(O)CCC2C3CCC4=CC(=O)CCC4C3CCC21CC (stereo partly drawn),0.04
5,C1=C2CC3(CCC2C2C(C1)C1CCC4(OCCO4)[C@@]14C[C@@H]2C[C@]41CO1)OCCO3 (stereo partly drawn),>4
6,C#C[C@]1(O)CCC2C3CCC4=CC(=O)CCC4C3C(=C)CC21CC (stereo partly drawn),0.015
7,C#C[C@]1(O)CCC2C3CCC4=CC(=O)CCC4C3[C@H]3C[C@@H](C)[C@]21C3 (stereo partly drawn),0.125
8,C#C[C@]1(O)CC[C@H]2[C@@H]3CCC4=CC(=O)CC[C@@H]4[C@H]3CC[C@@]21C [NORETHINDRONE],~0.5
